Data from patent publication US10662228B2 (priority 2014, dated 2020).

Test system: potassium ion channel current of the DRG neurons
Assay type: cell-based, SD rats
Conditions: 5 mM

With `Nc1ccncc1` [4AP, 4-aminopyridine] as the molecule, how does the Current inhibition rate read?
The Current inhibition rate was 0.338.

What about the “Current recorded after loading” value of the same molecule?
Its value is 0.9766 nA.
